Each structure is given as a SMILES string. Values after ≈ are worked out from the molar mass of the structure shown.

Among the test systems are Escherichia coli D31; Escherichia coli K-12; Leuconostoc lactis; Streptococcus uberis; Escherichia coli BL21AI.
Holding throughout (experiment): ≥ marks a high value that may be exact or a test limit, other limits are often not marked, values filed in µg/mL are converted to µM
The subject of test [1] is Bacillus subtilis KCTC 3068.
Test [2] has as its system Candida albicans KCTC 7965.
Test [3] has as its system Escherichia coli KCTC 1682.
Test [4] has as its system Pseudomonas aeruginosa KCTC 1637.
The test system of test [5] is Salmonella typhimurium KCTC 1926.
Test [6] deals with Staphylococcus aureus KCTC 1621.
For test [7], the system named is Staphylococcus epidermidis KCTC 1917.
Test [8] relates to Candida albicans ATCC 200955.
Test [9] has as its system Enterococcus faecium ATCC 700221.
Test [10] relates to Pseudomonas aeruginosa ATCC 27853.
Test [11] concerns Staphylococcus aureus ATCC 25923.
The subject of test [12] is Staphylococcus aureus ATCC 33591.
Test [13] relates to Klebsiella pneumoniae K6 ATCC 700603.
Test [14] concerns Salmonella enterica subsp. enterica serovar Typhimurium ATCC 700408.
The subject of test [15] is Staphylococcus aureus USA 300.
For test [16], the system named is Escherichia coli DH5alpha.
Test [17] relates to Micrococcus luteus ATCC 4698.
In test [18] the test system is Staphylococcus aureus ATCC 6538.
For test [19], the system named is Staphylococcus epidermidis ATCC 12228.
Test [20] concerns Lactococcus lactis subsp. cremoris I116.
In test [21] the test system is Staphylococcus aureus CIP 677.
Test [22] relates to Micrococcus luteus ATCC 10240.

On to `CC(C)C[C@H](NC(=O)[C@H](Cc1ccccc1)NC(=O)CNC(=O)[C@H](Cc1c[nH]c2ccccc12)NC(=O)[C@H](Cc1c[nH]c2ccccc12)NC(=O)[C@H](Cc1c[nH]c2ccccc12)NC(=O)CNC(=O)[C@H](Cc1ccccc1)NC(=O)[C@H](CCCN=C(N)N)NC(=O)[C@H](CCCN=C(N)N)NC(=O)[C@@H](N)C(C)C)C(=O)N[C@@H](CCCN=C(N)N)C(=O)N[C@@H](CCCN=C(N)N)C(=O)O` [VRRFGWWWGFLRR], for which the MIC in test [1] is 8.78 µM (≈ 16 µg/mL); in test [2] it was 17.6 µM (≈ 32 µg/mL); in test [3], 17.6 µM (≈ 32 µg/mL); in test [4] it was no less than 35.1 µM; in test [5], 17.6 µM (≈ 32 µg/mL); in [6], 8.78 µM (≈ 16 µg/mL). This compound displayed an MIC in test [7] of 4.39 µM (≈ 8 µg/mL).
As to `CC[C@H](C)[C@H](NC(=O)[C@H](CCCN=C(N)N)NC(=O)[C@H](CCCCN)NC(=O)[C@H](CC(C)C)NC(=O)[C@H](CC(C)C)NC(=O)CN)C(=O)N[C@@H](CCCCN)C(=O)N[C@@H](CCCCN)C(=O)N[C@@H](CC(C)C)C(=O)N[C@@H](CC(C)C)C(N)=O` [GLLKRIKKLL], the MIC in test [8] was no less than 85.3 µM; in test [9] it was no less than 66.3 µM; in [10], 28.4 µM (≈ 33.5 µg/mL); in [11], 4.23 µM (≈ 5 µg/mL); in [12], no less than 256 µM.
Regarding `CC[C@H](C)[C@H](NC(=O)[C@H](Cc1ccc(O)cc1)NC(=O)[C@@H](NC(=O)[C@@H]1CCCN1C(=O)[C@H](CCCN=C(N)N)NC(=O)[C@H](CC(N)=O)NC(=O)[C@H](CC(N)=O)NC(=O)CN)C(C)C)C(=O)N1CCC[C@H]1C(=O)N[C@@H](CCC(N)=O)C(=O)N1CCC[C@H]1C(=O)N[C@@H](CCCN=C(N)N)C(=O)N1CCC[C@H]1C(=O)N1CCC[C@H]1C(=O)N[C@@H](Cc1cnc[nH]1)C(=O)N1CCC[C@H]1C(=O)N[C@@H](CCCN=C(N)N)C(=O)N[C@@H](Cc1ccccc1)C(N)=O` [GNNRPVYIPQPRPPHPRF], the figures for the MIC (with Escherichia coli D31; in [13]; in test [14]) were no less than 59.7 µM, 29.9 µM (≈ 64 µg/mL) and 1.87 µM (≈ 4 µg/mL), respectively.
As for `CC(C)C[C@H](NC(=O)CN)C(=O)N[C@@H](C)C(=O)N[C@@H](CC(=O)O)C(=O)N[C@@H](Cc1ccccc1)C(=O)N[C@@H](CC(C)C)C(=O)N[C@@H](CC(N)=O)C(=O)N[C@@H](CCCCN)C(=O)N[C@@H](C)C(=O)N[C@H](C(=O)NCC(=O)N[C@@H](CCCCN)C(=O)N[C@H](C(=O)N[C@H](C(=O)N[C@@H](CC(=O)O)C(=O)N[C@@H](Cc1ccccc1)C(=O)N[C@H](C(=O)N[C@@H](CCCCN)C(=O)N[C@@H](CO)C(N)=O)C(C)C)C(C)C)C(C)C)C(C)C` [GLADFLNKAVGKVVDFVKS], the MIC is no less than 100 µM against Escherichia coli K-12, 25 µM (≈ 50.2 µg/mL) with Leuconostoc lactis, no less than 100 µM in test [15] and no less than 50 µM in the test with Streptococcus uberis.
As to `CC(C)C[C@H](NC(=O)[C@H](CC(C)C)NC(=O)[C@H](CCCCN)NC(=O)[C@H](CO)NC(=O)[C@H](CC(C)C)NC(=O)[C@H](C)NC(=O)[C@H](CCCCN)NC(=O)[C@H](Cc1ccccc1)NC(=O)[C@@H](NC(=O)[C@H](C)NC(=O)CNC(=O)[C@H](CC(C)C)NC(=O)[C@@H](N)Cc1ccccc1)C(C)C)C(=O)O` [FLGAVFKALSKLL], the MIC in test [16] was found to be 21.3 µM (≈ 30 µg/mL); in [17] it was 4.27 µM (≈ 6 µg/mL); in [18], 7.82 µM (≈ 11 µg/mL); in test [19] it was 12.8 µM (≈ 18 µg/mL).
For `CC(C)C[C@H](NC(=O)[C@H](CC(C)C)NC(=O)[C@H](CCCCN)NC(=O)[C@H](CO)NC(=O)[C@H](CC(C)C)NC(=O)[C@H](C)NC(=O)[C@H](CCCCN)NC(=O)[C@H](Cc1ccccc1)NC(=O)[C@H](CC(C)C)NC(=O)[C@H](C)NC(=O)[C@H](CCCCN)NC(=O)[C@H](CC(C)C)NC(=O)[C@@H](N)Cc1ccccc1)C(=O)O` [FLKALFKALSKLL], the MIC in test [16] was 16.8 µM (≈ 25 µg/mL); in test [17], 2.68 µM (≈ 4 µg/mL); in [18] it was 4.02 µM (≈ 6 µg/mL); in test [19] it was 6.7 µM (≈ 10 µg/mL).
As to `CC[C@H](C)[C@H](NC(=O)CN)C(=O)N[C@@H](Cc1c[nH]c2ccccc12)C(=O)NCC(=O)N[C@H](C(=O)N[C@@H](CC(C)C)C(=O)N[C@@H](C)C(=O)N[C@@H](CCCCN)C(=O)N[C@H](C(=O)NCC(=O)N[C@H](C(=O)N[C@@H](CCCCN)C(=O)N[C@@H](C)C(=O)N[C@H](C(=O)N1CCC[C@H]1C(=O)N[C@@H](CCCN=C(N)N)C(=O)N[C@H](C(=O)N[C@H](C(=O)N[C@@H](CO)C(=O)N[C@@H](CCSC)C(=O)N[C@@H](CC(C)C)C(=O)N[C@@H](CCCCN)C(=O)N[C@@H](CCCCN)C(=O)N[C@@H](CCCCN)C(=O)N[C@@H](CCC(N)=O)C(=O)O)[C@@H](C)CC)C(C)C)C(C)C)[C@@H](C)CC)[C@@H](C)CC)[C@@H](C)O` [GIWGTLAKIGIKAVPRVISMLKKKQ], the MIC was found to be 4 µM (≈ 10.9 µg/mL) in [20] and 8 µM (≈ 21.9 µg/mL) in test [21].
As to `CC[C@H](C)[C@H](NC(=O)[C@H](Cc1ccc(O)cc1)NC(=O)[C@@H](NC(=O)[C@@H]1CCCN1C(=O)[C@H](CCCN=C(N)N)NC(=O)[C@H](CC(N)=O)NC(=O)[C@H](CC(N)=O)NC(=O)CN)C(C)C)C(=O)N[C@@H](C)C(=O)N[C@@H](CCC(N)=O)C(=O)N1CCC[C@H]1C(=O)N[C@@H](CCCN=C(N)N)C(=O)N1CCC[C@H]1C(=O)N1CCC[C@H]1C(=O)N[C@@H](Cc1cnc[nH]1)C(=O)N1CCC[C@H]1C(=O)N[C@@H](CCCN=C(N)N)C(=O)N[C@@H](CC(C)C)C(N)=O` [GNNRPVYIAQPRPPHPRL], the MIC (against Escherichia coli BL21AI; in [22]) was no less than 60 µM throughout.

(Values after DBAASP.)
